Reference: ChEMBL document CHEMBL6071165, “Design, synthesis and biological evaluation of plant-derived miliusol derivatives achieve TNBC profound regression in vivo” (Eur J Med Chem, 2024)
Calls of active or inactive are those of the source. The calls are words filed in the database; no cut-off is given here.

How the values were obtained:
BT-549 [1] = experiment: Induction of apoptosis in human BT-549 cells assessed as early apoptotic cells at 0.5 uM incubated for 24 hrs by Annexin V-PI staining based flow cytometric analysis (reference value: 0.78%); type: functional
BT-549 [2] = experiment: Induction of apoptosis in human BT-549 cells assessed as viable cells at 2 uM incubated for 24 hrs by Annexin V-PI staining based flow cytometric analysis (reference value: 93.0%); type: functional; settings: read-out: Activity
BT-549 [3] = experiment: Antiproliferative activity against human BT-549 cells xenografted in female BALB/c mouse model assessed as fold change in upregulation of BIP protein level at 5 mg/kg administered subcutaneously incubated for 24 hrs by Western blot analysis (reference value: 1.00%); type: functional; settings: route sc
BT-549 [4] = experiment: Induction of apoptosis in human BT-549 cells assessed as early apoptotic cells at 2 uM incubated for 24 hrs by Annexin V-PI staining based flow cytometric analysis (reference value: 0.78%); type: functional
MDA-MB-231 [5] = experiment: Antiproliferative activity against human MDA-MB-231 cells xenografted in female BALB/c mouse model assessed as fold change in upregulation of BAX protein level at 5 mg/kg administered subcutaneously incubated for 24 hrs by Western blot analysis (reference value: 1.00%); type: functional; settings: route sc
BT-549 [6] = experiment: Inhibition of glycolysis in human BT-549 cells assessed as decrease in GLUT4 protein level at 0.5 to 2 uM incubated for 24 hrs by Western blot analysis; type: functional, cell-based; settings: dose 0.5-2 µM
[7] = Selectivity ratio of IC50 for antiproliferative activity against human MCF-10A cells assessed as inhibition of cell proliferation incubated for 24 hrs by MTT assay to IC50 for antiproliferative activity against human MDA-MB-231 cells assessed as inhibition of cell proliferation incubated for 24 hrs by MTT assay; type: cell-based; settings: MCF-10A cells versus MDA-MB-231 cells, read-out: Ratio IC50
BT-549 [8] = experiment: Antiproliferative activity against human BT-549 cells xenografted in female BALB/c mouse model assessed as fold change in upregulation of BIP protein level at 20 mg/kg administered subcutaneously incubated for 24 hrs by Western blot analysis (reference value: 1.00%); type: functional; settings: route sc
MDA-MB-231 [9] = experiment: Inhibition of glycolysis in human MDA-MB-231 cells assessed as decrease in LDHA protein level at 0.5 to 2 uM incubated for 24 hrs by Western blot analysis; type: functional, cell-based; settings: dose 0.5-2 µM
MDA-MB-231 [10] = experiment: Induction of ER stress in human MDA-MB-231 cells assessed as activation of Xbp-1s protein level incubated for 24 hrs by Western blot analysis; type: functional, cell-based; settings: dose 0.5-2 µM
BT-549 [11] = experiment: Inhibition of cell migration in human BT-549 cells assessed as decrease in SNAIL level at 1 uM incubated for 24 hrs by DAPI staining based immunofluorescence analysis; type: functional
BT-549 [12] = experiment: Antiproliferative activity against human BT-549 cells xenografted in female BALB/c mouse model assessed as fold change in cleavage of caspase-3 level at 5 mg/kg administered subcutaneously incubated for 24 hrs by Western blot analysis (reference value: 1.00%); type: functional; settings: route sc
[13] = Toxicity in female BALB/c mouse xenografted with human MDA-MB-231 cells assessed as effect on pathological changes in spleen at 5 to 20 mg/kg, sc by H and E staining based analysis; type: organism-based; settings: in vivo, dose 5-20 mg/kg
BT-549 [14] = experiment: Inhibition of glycolysis in human BT-549 cells assessed as decrease in PKM2 protein level at 0.5 to 2 uM incubated for 24 hrs by Western blot analysis; type: functional, cell-based; settings: dose 0.5-2 µM
BT-549 [15] = experiment: Antitumor activity against human BT-549 cells xenografted in female BALB/c mouse model assessed as reduction of proliferation rate of tumor at 5 to 20 mg/kg administered subcutaneously and measured every day; type: functional, organism-based; settings: dose 5-20 mg/kg, route sc
MDA-MB-231 [16] = experiment: Inhibition of cell migration in human MDA-MB-231 assessed as reduction in wound healing ability at 0 to 2 uM incubated for 48 hrs by Wound healing assay; type: functional, cell-based; settings: dose 0-2 µM
[17] = Antiproliferative activity against human MCF-10A cells assessed as inhibition of cell proliferation incubated for 24 hrs by MTT assay; type: toxicity, cell-based
Mitochondrial membrane [18] = experiment: Disruption of mitochondrial potential loss in human BT-549 cells assessed as decrease in JC-1 aggregates at 1 uM incubated for 24 hrs by JC-1 staining based flow cytometric analysis (Rvb =98.7%); type: cell membranes; set-up: scale not given: the % may be the effect or the level left
BT-549 [19] = experiment: Induction of ER stress in human BT-549 cells assessed as activation of CHOP protein level incubated for 24 hrs by Western blot analysis; type: functional, cell-based; settings: dose 0.5-2 µM
BT-549 [20] = experiment: Induction of ER stress in human BT-549 cells assessed as appearance of large number of vacuoles at 1 uM incubated for 24 hrs by TEM analysis; type: functional, cell-based
[21] = Toxicity in female BALB/c mouse assessed as change in kidney administered subcutaneously measured upto 16 days; type: tissue-based; settings: in vivo, sc, 384 h, time < 16 day
MDA-MB-231 [22] = experiment: Induction of apoptosis in human MDA-MB-231 cells assessed as viable cells at 2 uM incubated for 24 hrs by Annexin V-PI staining based flow cytometric analysis (reference value: 96.5%); type: functional; settings: read-out: Activity
MDA-MB-231 [23] = experiment: Induction of ER stress in human MDA-MB-231 cells assessed as increase in calcium ion content at 2 uM incubated for 24 hrs by Fluo-3AM staining based flow cytometric analysis; type: functional, cell-based
MDA-MB-231 [24] = experiment: Antiproliferative activity against human MDA-MB-231 cells xenografted in female BALB/c mouse model assessed as fold change in inhibition of PKM2 expression at 5 mg/kg administered subcutaneously incubated for 24 hrs by Western blot analysis (reference value: 1.00%); type: functional; settings: route sc
[25] = Toxicity in female BALB/c mouse xenografted with human MDA-MB-231 cells assessed as effect on pathological changes in kidney at 5 to 20 mg/kg, sc by H and E staining based analysis; type: organism-based; settings: in vivo, dose 5-20 mg/kg
Mitochondrial membrane [26] = experiment: Disruption of mitochondrial potential loss in human BT-549 cells assessed as increase in JC-1 monomers at 1 uM incubated for 24 hrs by JC-1 staining based flow cytometric analysis (Rvb =1.07%); type: cell membranes
MDA-MB-231 [27] = experiment: Antitumor activity against human MDA-MB-231 cells xenografted in female BALB/c mouse model assessed as reduction in tumor volume administered subcutaneously and measured every day; type: functional, cell-based; settings: dose 5-20 mg/kg, route sc
MDA-MB-231 [28] = experiment: Induction of ER stress in human MDA-MB-231 cells assessed as upregulation of BIP protein level at 1 uM incubated for 24 hrs by DAPI staining based immunofluorescence analysis; type: functional, cell-based
[29] = Toxicity in female BALB/c mouse xenografted with human MDA-MB-231 cells assessed as effect on pathological changes in heart at 5 to 20 mg/kg, sc by H and E staining based analysis; type: organism-based; settings: in vivo, dose 5-20 mg/kg
BT-549 [30] = experiment: Inhibition of cell proliferation in human BT-549 cells assessed as reduction in Ki-67 expression at 0.5 to 2 uM incubated for 24 hrs by DAPI staining based immunofluorescence analysis; type: functional; settings: dose 0.5-2 µM
BT-549 [31] = experiment: Induction of apoptosis in human BT-549 cells assessed as necrotic cells at 2 uM incubated for 24 hrs by Annexin V-PI staining based flow cytometric analysis (reference value: 3.32%); type: functional
BT-549 [32] = experiment: Inhibition of cell migration in human BT-549 cells assessed as reduction in wound healing ability at 0 to 2 uM incubated for 48 hrs by Wound healing assay; type: functional, cell-based; settings: dose 0-2 µM

CC(C)=CCC/C(C)=C/[C@H]1OC(=O)CC12C[C@H](OC(=O)Cc1ccc(NC(=O)/C=C/c3ccccc3)cc1)C=CC2=O (some centres not stated)
Activity (BT-549 [1]): 0.91%
viability at 2 µM (BT-549 [2]): 34.8%
fold change (FC) (BT-549 [3]): 1.4
Activity (BT-549 [4]): 11.1%
fold change (FC) (MDA-MB-231 [5]): 1.05
inhibition (BT-549 [6]): Active
selectivity ratio at 24 h [7]: 67.2
fold change (FC) (BT-549 [8]): 2.37
inhibition (MDA-MB-231 [9]): Active
Activity (MDA-MB-231 [10]): Active
inhibition (BT-549 [11]): Active
fold change (FC) (BT-549 [12]): 1.64
Activity [13]: Non-Toxic
inhibition (BT-549 [14]): Active
Activity (BT-549 [15]): Active
inhibition (MDA-MB-231 [16]): Active
IC50 at 24 h [17]: 57.1 µM
Activity (Mitochondrial membrane [18]): 43.2%
Activity (BT-549 [19]): Dose-Dependent Effect
Activity (BT-549 [20]): Active
Activity [21]: Non-Toxic
viability at 2 µM (MDA-MB-231 [22]): 48.8%
Activity (MDA-MB-231 [23]): Active
fold change (FC) (MDA-MB-231 [24]): 0.81
Activity [25]: Non-Toxic
Activity (Mitochondrial membrane [26]): 56.3%
Activity (MDA-MB-231 [27]): Dose-Dependent Effect
Activity (MDA-MB-231 [28]): Active
Activity [29]: Non-Toxic
inhibition (BT-549 [30]): Active
Activity (BT-549 [31]): 4.02%
inhibition (BT-549 [32]): Active
